Experimental data taken from patent publication US10525105B2, “Peptide for repairing cartilage and treating osteoarthritis” (Guangzhou Link Health Pharma Co., Ltd., priority 2016, dated 2020).
Peptide text beside a SMILES is read from it.

Columns and labels:
in vivo = assay: in vivo; parameters: species or system New Zealand rabbits; conditions: New Zealand, rabbit, iv, 0.5 mg/kg
Description: LC/MSMS methodology was established, Finnigan TSQ Discovery Max LC/MS was equipped with Surveyor HPLC system. The detection limit was 1-1000 ng/ml, and the recovery rate was over 80%. Six New Zealand rabbits were randomly divided into two groups (three rabbits in each group). […] The blood concentration was measured by LC/MSMS method, 100 μl of blood plasma was taken, 500 μl of a mixed solvent containing IS 2000 ng/ml of acetonitrile and methanol solution at a ratio of 70:30 was added, shaken, and centrifuged at 12000 rpm for 10 minutes. 20 μl of supernatant was injected for LC/MSMS analysis. The main pharmacokinetic parameters were calculated by using 3P97 pharmacokinetic software.

chondrocytes [1] = assay: Immunohistochemical detection of COL2A1 in chondrocytes; type: cell-based, New Zealand white rabbit; conditions: 1 μM, 5 days
Description: The articular cartilage of New Zealand white rabbit aged 2 months old was cut under sterile conditions, and cut into a size of 1 mm. The articular cartilage was digested at 37° C. according to the following procedure: (1) digested with 2 mg/ml hyaluronidase for 45 minutes; (2) digested with 2 mg/ml trypsin for 45 minutes; and (3) digested with 4 mg/ml type II collagenase for 3 hours, washed, and then centrifuged (1500 r/min) for 5 minutes; and the precipitate was cultured in a DMEM medium containing 15% fetal bovine serum. Immunohistochemical Detection of COL2A1 Chondrocytes were inoculated at 3.5×10^5 cells/ml in a 6-well culture plate with coverslips, and different concentrations of BM23 peptides were added; PBS was set as a negative control group, and IGF-1 was set as a positive control group. The 6-well culture plate was placed in a 5% CO2 saturated water-vapor carbon dioxide incubator for a culture at 37° C. for 5 days. Immunohistochemical staining was performed as in Embodiment 3.

[2] = system: rat bone marrow mesenchymal stem cells (BMSCs); assay: Chondrogenic induction of BMSCs, quantitative PCR of COL2A1 and ACAN mRNA; type: cell-based; conditions: rat BMSCs in chondrogenic medium
Description: Three SD rats aged 8 weeks were sacrificed by a dislocation method and disinfected with 70% ethanol for 5 minutes. The abdominal wall layers of the three SD rats were then cut with scissors, an incision of each SD rat was pulled to a femur, and muscles on the femur were carefully separated.
A middle of the femur was cut off, and a bone marrow cavity was repeatedly washed by a low-sugar DMEM medium (containing 1 mL/L of heparin) sucked with a syringe to flush out bone marrow.
The bone marrow was repeatedly washed with the syringe, and prepared into a single cell suspension by successively passing through needle No. 7 and needle No. 4.
The single cell suspension was centrifuged (1500 r/min, 10 min), and a supernatant was discarded; DMEM-F12 complete medium containing 10% FBS was added, and then an inoculation was performed in a culture flask at a density of 10^7 cells/mL, and the culture flask was placed in an incubator having 5% CO2 at 37° C. for a culture.
The cells were purified by a differential adherent culture. The culture solution was changed 48 hours after the inoculation, and thereafter, the culture solution was changed every 3 days to remove non-adherent hematopoietic cells.
After the cells grew to 80%-90%, a passage was performed. The culture solution was removed, and the cells were washed with PBS to remove residual serum; and the PBS was removed.
A BMSCs digestive juice (containing 0.25% trypsin and 0.02% EDTA solution) was added for a slight shaking until the BMSCs digestive juice just covers the bottom of the culture flask; and a digestion time was about 5 minutes. Then, the passage was carried out.
The cells were transferred to a centrifuge tube, centrifuged at 1500 r/min for 10 minutes; a supernatant was removed; and a complete culture medium of mesenchymal stem cells was added for re-suspending the cells.
The BM23 peptide was dissolved in phosphate buffered saline (PBS).
(§1) The cells were re-suspended in a complete chondrogenic medium (purchased from Guangzhou Cyagen Biosicences Inc., Item No.: RASMX-90011) containing different concentrations of BM23 peptides (0.1 μM, 0.3 μM, and 1 μM), so that the concentration of BMSCs was 5.0×10^5 cells per ml. PBS was used as a negative control, and 1 μM human insulin growth factor (IGF-1, purchased from Beijing Yiqiao Shenzhou Biotechnology Co., Ltd.) was used as a positive control.
The treated BMSCs were incubated at 37° C. under 5% CO2 saturated humidity. The medium was changed every 2-3 days, and 0.5 mL of fresh complete chondrogenic medium was added to each tube. […]
Quantitative PCR Detection […]
Quantitative PCR was performed using cDNA as a template and the following primers: • (1) rat COL2A1-F1: 5′ […] […]

[3] = system: knee articular cartilage defect; assay: Rabbit cartilage repair model; type: in vivo, New Zealand rabbits; conditions: for general observation score: 90 days after first administration, 0-4 point scale; for histopathological scores of articular cartilage: 90 days, ICRS pathological scoring, grade 0-6, six rabbits
Description: Animals: New Zealand rabbits, 2 months old, half male and half female
Construction of models: New Zealand rabbits were anesthetized with 6% pentobarbital sodium (0.7 mL/kg) via marginal ear veins. After anesthesia, a longitudinal incision having a length of about 3 cm was made on the medial side of the knee joint of the left hind leg; the skin, subcutaneous tissue and joint capsule were cut successively to maintain the integrity of the patellar ligament; and the patella was turned outward to expose the femoral condyle. When the knee joint flexes 90°, an articular cartilage defect with a diameter of 4.2 mm and a depth of 3 mm was drilled in the femur and the middle of lateral intercondylar articular surfaces corresponding to the patella by using a drill bit with a diameter of 4.2 mm (according to visible bleeding on subchondral bone). The defect was washed with normal saline without any other treatment. […] After the patella is reset, the muscle and skin incisions are sequentially sutured. After the operation, immediately, the animals were intramuscularly injected with penicillin sodium once a day for 3 consecutive days to prevent infection.
Administration: the New Zealand rabbits with knee articular cartilage defects were divided into four groups: negative control group, low-dose group (1 mg/rabbit), medium-dose group (3 mg/rabbit) and high-dose group (10 mg/rabbit), 12 rabbits in each group, half male and half female in each group. On the 6th day after constructing the models, each group of rabbits was administered intra-articularly. Namely, 1 mg/rabbit, 3 mg/rabbit and 10 mg/rabbit were administered to the test rabbits, respectively, and the administration volume was 0.2 ml.
Sacrifice and observation: at 90 days after the first administration, 6 rabbits (half male and half female) were selected from each group and sacrificed, and the repair situation of the knee articular cartilage in each rabbit was observed by dissection.
(1) General observation: during necropsy, the articular cavity was opened, the patella articular surface was exposed, and the repair of the filling edge of the defect, the flatness of the cartilage surface, the color of the new cartilage, etc., were observed.
Subsequently, scoring was performed according to the following criteria:
0 point: the articular surface is smooth and the color is normal;
1 point: the articular surface is rough, with small fissures and dark color;
2 points: the cartilage defect has reached the middle layer of cartilage;
3 points: the articular surface ulcer is formed, and the cartilage defect has reached the deep layer of cartilage; and
4 points: the cartilage is exfoliated, and subchondral bones are exposed.
(2) Histological pathological observation: observation was performed under light microscope, and scoring was performed according to the ICRS pathological scoring standard:
Grade 0: the cartilage surface is flat and the cartilage is intact;
Grade 1: the superficial fibers are formed in the cartilage surface and are uneven;
Grade 2: the cartilage surface is discontinuous, accompanied by cell proliferation; and metachromatic materials are increased or decreased in the II-III layers;
Grade 3: cartilage rhagadia has reached the III layer or erosion occurs;
Grade 4: the erosion of the cartilage is aggravated, and the articular cartilage is damaged;
Grade 5: the articular cartilage is exfoliated; and
Grade 6: the joint is deformed.
After the rabbits were sacrificed by anesthesia and exsanguination, the articular cartilage tissue was exfoliated and fixed with 10% neutral formalin, followed by dehydration, conventional paraffin embedding, sectioning, HE staining and mounting, and detection was performed by light microscopy.

chondrocytes [4] = assay: Proliferation of chondrocytes by MTS assay; type: cell-based, New Zealand white rabbit; conditions: 5 days of treatment, OD 570 nm, BM23 peptide 0.1, 0.3, 1 μM, IGF-1 1 μM
Description: The articular cartilage of New Zealand white rabbit aged 2 months old was cut under sterile conditions, and cut into a size of 1 mm. The articular cartilage was digested at 37° C. according to the following procedure: (1) digested with 2 mg/ml hyaluronidase for 45 minutes; (2) digested with 2 mg/ml trypsin for 45 minutes; and (3) digested with 4 mg/ml type II collagenase for 3 hours, washed, and then centrifuged (1500 r/min) for 5 minutes; and the precipitate was cultured in a DMEM medium containing 15% fetal bovine serum. […] Detection of the Proliferation of Chondrocytes by MTS Assay Chondrocytes were inoculated in a 96-well plate at 2×10^4 cells/well, and different concentrations of BM23 peptides (0.1 μM, 0.3 μM, and 1 μM) were added; PBS was set as a negative control group, and IGF-1 (1 μM) was set as a positive control group. The 96-well plate was placed in a 5% CO2 saturated water-vapor carbon dioxide incubator for a culture at 37° C. for 5 days. 20 μl of MTS mixture was added to each well, and the culture was continued for 3-4 hours for coloration. Before testing, the culture plate was shaken for 10 seconds to uniformly mix colors. The optical density (OD) of each well was measured at a wavelength of 570 nm on an enzyme-linked immunometric meter.

mesenchymal stem cells = assay: Immunohistochemical detection of COL2A1 in mesenchymal stem cells; type: cell-based, rat; conditions: 1 μM
Description: as §1
The treated BMSCs were incubated at 37° C. under 5% CO2 saturated humidity. The medium was changed every 2-3 days, and 0.5 mL of fresh complete chondrogenic medium was added to each tube.
Generally, samples can be collected after 28 days of continuous induction; and cartilage balls can be subjected to formalin fixation, paraffin embedding, sectioning and alcian blue staining.
Paraffin Embedding of Tissues:
The specimens were fixed with 4% paraformaldehyde for 24-36 hours.
The specimens were taken out and washed to remove the fixative, and a material with a suitable size (about 0.2 cm in thickness) was cut for embedding.
The specimens were respectively treated once with 70%, 80%, 90% and 95% ethanol, and 60 minutes are for each treatment. The specimens were treated twice with 100% ethanol, and 50 minutes are for each time.
The specimens were treated once with ½xylene-½ absolute ethanol for 15 minutes. […]

[5] = high-dose group 10 mg/rabbit intra-articular
[6] = low-dose group 1 mg/rabbit intra-articular
[7] = medium-dose group 3 mg/rabbit intra-articular

Row | Compound | half-life (in vivo) | expression level of COL2A1 protein (immunohistochemical staining) vs PBS treatment group (chondrocytes [1]) | mRNA expression level of ACAN compared with PBS treatment ([2]; 0.1 μM) | mRNA expression level of COL2A1 compared with PBS treatment ([2]; 0.1 μM) | mRNA expression level of ACAN compared with PBS treatment ([2]; 0.3 μM) | mRNA expression level of ACAN compared with PBS treatment ([2]; 1 μM) | general observation score [3, 5] | histopathological scores of articular cartilage [3, 5] | general observation score [3, 6] | histopathological scores of articular cartilage [3, 6] | general observation score [3, 7] | histopathological scores of articular cartilage [3, 7] | proliferation of chondrocytes compared with the PBS group (chondrocytes [4]) | expression level of COL2A1 protein (immunohistochemical staining) vs PBS treatment group (mesenchymal stem cells)
1 | CC[C@H](C)[C@H](NC(=O)[C@H](CCCNC(=N)N)NC(=O)[C@H](Cc1c[nH]cn1)NC(=O)[C@H](CCCCNC(=N)N)NC(=O)[C@H](CC(N)=O)NC(=O)[C@H](CCCNC(=N)N)NC(=O)[C@H](Cc1c[nH]cn1)NC(=O)[C@H](CCCCN)NC(=O)[C@H](CC(C)C)NC(=O)[C@H](N)CCC(N)=O)C(=O)N[C@@H](CCCCN)C(=O)N[C@H](C(=O)NCC(=O)N[C@@H](CO)C(=O)N[C@H](C(=O)N[C@@H](CC(N)=O)C(=O)N[C@@H](Cc1c[nH]cn1)C(=O)NCC(=O)N[C@@H](CC(C)C)C(=O)N[C@H](C(=O)N[C@@H](CCC(N)=O)C(=O)N[C@@H](CO)C(=O)N[C@@H](CC(C)C)C(N)=O)C(C)C)[C@@H](C)O)[C@@H](C)O [BM23 peptide] (HELM PEPTIDE1{[dQ].L.K.H.R.N.[N=C(N)NCCCC[C@H](N[*:1])C(=O)[*:2]].H.R.I.K.T.G.S.T.N.H.G.L.V.Q.S.L.[am]}$$$$V2.0; N-terminus assumed) | 2.05 ± 0.633 h | significantly increased | no significant effect | no significant effect | significantly different | significantly different | 2.1 points | 2.1 points | 3.7 points | 3.7 points | 3.0 points | 3.0 points | significantly promoted | significantly increased
2 | positive control: human insulin growth factor (IGF-1), used at 1 μM as positive control |  |  |  |  |  |  |  |  |  |  |  |  | significantly promoted | 
